Converted amounts (≈) assume the structure as drawn.
Key:
Format in all cases: functional
A549 = experiment: Cytotoxic activity against human A549 cell line was measured after 72 hr using MTT assay; settings: A549, 72 h, read-out: ED50 (the source's name)
L132 = experiment: Cytotoxic activity against human L132 cell line was measured after 72 hr using MTT assay; settings: L132, 72 h, read-out: ED50 (the source's name)
MOLT-4 = experiment: Cytotoxic activity against human MOLT-4 cell line was measured after 72 hr using MTT assay; settings: Homo sapiens, MOLT-4, 72 h; read-out: ED50 (the source's name)
PA-1 = experiment: Cytotoxic activity against human PA-1 cell line was measured after 72 hr using MTT assay; settings: Homo sapiens, PA-1, 72 h; read-out: ED50 (the source's name)
DU-145 = experiment: Cytotoxic activity against human DU145 cell line was measured after 72 hr using MTT assay; settings: Homo sapiens, DU-145, 72 h; read-out: ED50 (the source's name)
BRISTOL8 = experiment: Cytotoxic activity against human BRISTOL8 cell line was measured after 72 hr using MTT assay; settings: Homo sapiens, BRISTOL8, 72 h; read-out: ED50 (the source's name)
U-937 = experiment: Cytotoxic activity against human U937 cell line was measured after 72 hr using MTT assay; settings: Homo sapiens, U-937, 72 h; read-out: ED50 (the source's name)
CCRF-CEM = experiment: Cytotoxic activity against human CEM.CM3 cell line was measured after 72 hr using MTT assay; settings: Homo sapiens, CCRF-CEM, 72 h; read-out: ED50 (the source's name)
Jurkat = experiment: Cytotoxic activity against human JurkatE6.1 cell line was measured after 72 h using MTT assay; settings: Homo sapiens, Jurkat, 72 h; read-out: ED50 (the source's name)

In the case of `CC(C)[C@@H]1CC[C@]2(C(=O)O)CC[C@]3(C)C(CCC4[C@@]5(C)CC[C@H](O)C(C)(C)C5CC[C@]43C)C12` (some centres undefined) [DIHYDROBETULINIC ACID], the EC50 (A549) is reported as 2.2 µg/mL (≈ 4.8 µM), the EC50 (L132) is reported as 2.4 µg/mL (≈ 5.23 µM) and the EC50 (MOLT-4) is reported as 0.6 µg/mL (≈ 1.31 µM). It also gave an EC50 (PA-1) of 0.7 µg/mL (≈ 1.53 µM), an EC50 (DU-145) of 0.7 µg/mL (≈ 1.53 µM) and an EC50 (BRISTOL8) of 4.4 µg/mL (≈ 9.59 µM). It also gave an EC50 (U-937) of 0.9 µg/mL (≈ 1.96 µM), an EC50 (CCRF-CEM) of 1.3 µg/mL (≈ 2.83 µM) and an EC50 (Jurkat) of 4.9 µg/mL (≈ 10.7 µM).

— ChEMBL document CHEMBL1138817, “Synthesis and cytotoxic activity of 3-O-acyl/3-hydrazine /2-bromo/20,29-dibromo betulinic acid derivatives” (2004)
